Experimental data taken from paper PMC11814485, “Screening of homing and tissue-penetrating peptides by microdialysis and in vivo phage display” (Life Science Alliance, 2025).

How the values were obtained:
[1] = test system: day 7 skin wound; assay: In vivo playoff of custom-made phage library with microdialysis recovery and HTS in rat skin wound model; conditions: for Liver Count: HTS reads in liver after 1 h circulation and perfusion; for Wound without probe Count: HTS reads in wound tissue after 1 h circulation and perfusion; for Normal skin microdialysate Count / Wound microdialysate Count: HTS reads; for Normal skin microdialysate Count: probe under normal skin; for Normal skin microdialysate Count / Wound microdialysate Count / Wound microdialysate %: dialysate collected 1 h; for Wound microdialysate Count / Wound microdialysate %: rat; for Wound microdialysate Count: i.v. tail vein, 3-MDa probe under day 7 wound; for Liver %: share of HTS reads in liver after 1 h circulation and perfusion; for Wound without probe %: share of HTS reads in wound tissue after 1 h circulation and perfusion; for Wound microdialysate %: share of HTS reads, i.v.
Procedure: We next tested the applicability of the microdialysis-based system for extravascular phage recovery in the rat wound model. In the initial proof-of-concept studies, we used an in vivo “playoff” approach that allows parallel auditioning of the performance of peptide phages in low-complexity mixtures ([Pleiko et al, 2021]). Wound-bearing rats were dosed with a pool of phages displaying peptides known to home to angiogenic vessels and penetrate tissues, CAR (amino acid sequence CARSKNKDC) and iRGD (CRGDKGPDC). The CAR peptide uses a heparan sulfate proteoglycan (syndecan-4)–dependent pathway for the wound homing and penetration ([Järvinen & Ruoslahti, 2007], [2010]; [Maldonado et al, 2023]), whereas iRGD first homes to αv integrins in angiogenic vasculature followed by proteolytic cleavage of the peptide and binging to neuropilin-1, which activates a trans-tissue transport pathway, the CendR pathway ([Sugahara et al, 2009], [2010]; [Teesalu et al, 2009]). […] Peptides lacking tissue-penetrating properties were included as controls. The CRK (CRKDKC) peptide homes to angiogenic blood vessels, but remains bound to the blood vessels ([Järvinen & Ruoslahti, 2007]; [Agemy et al, 2010]). The test pool also included peptide phage clones identified during an in vivo phage display screen for peptides homing to skin wounds but not selected for further analysis at that time ([Järvinen & Ruoslahti, 2007]). As negative controls, we included phages from a naïve peptide phage library that display random peptides.
Microdialysis probes with 3-MDa cutoff were implanted under the center of a day 7 skin wound (peak of angiogenesis) in rats, or under normal skin (Fig S2). Care was taken not to rupture blood vessels during the probe insertion, and a proper probe location was confirmed at the end of the experiment. After insertion, the microdialysis device was run for 45 min to allow the local flow inside the catheter to be established (manufacturer’s recommendation) ([Joukhadar & Müller, 2005]; [Chaurasia et al, 2007]), followed by intravenous injection of the phage cocktail, and sampling of wound and control dialysates for 60 min. Subsequently, the animals were perfused to remove free phages, and wounds and control organs were collected for further analysis. […] No phages (including CAR and iRGD phages) were detected in the dialysates placed in the intact normal skin (Table 1).
The custom-made phage library for the in vivo validation was cloned on T7 415-1 backbone, grown in BL21 E. coli strain, and filter-sterilized. The phages were either cloned as described previously or picked randomly from a phage library ([Järvinen & Ruoslahti, 2007]; [Teesalu et al, 2009]; [Pemmari et al, 2020a]). Each phage clone was sequenced. The custom-made library was made by mixing an equal amount of each phage (titer 5 × 10^9).
(§1) For the in vivo microdialysis, CMA 402 Syringe Pump with Hamilton syringes was used to push and the Harvard P70 peristaltic pump (Harvard Apparatus) to pull the CMA perfusion fluid (CMA Microdialysis AB) and dialysate. Each of the CMA 402 two outputs was connected to the inlet spike of the CMA 12 custom-made 3-MDa probe (CMA Microdialysis AB) via CMA FEP tubing (CMA Microdialysis AB), and the outlet spike of the CMA 12 probe was further connected to Harvard P70 peristaltic pump and further to CMA Probe Shaft Clip (CMA Microdialysis AB) via CMA connector tubing (CMA Microdialysis AB). From the CMA Probe Shaft Clip, the dialysate was pumped into CMA sample tubes (CMA Microdialysis AB). Harvard 0.19-mm-diameter tubing (Harvard Apparatus) and Harvard 3 collar 1.52-mm tubing (Harvard Apparatus) were used with the Harvard P70 peristaltic pump. In addition, CMA tubing adaptors (CMA Microdialysis AB) were used for connecting tubes to syringes and probes. The system was flushed with 70% ethanol before any use.
Male Wistar rats were used for the in vivo validation experiment and the library screen. The rats were 27 wk old and weighed 490 g. […]

[2] = test system: day 7 skin wounds; assay: In vivo phage display screen of naive CX7C T7 library using microdialysis and HTS; design: species or system rat; conditions: for Total counts / First hour (counts) / Second hour (counts): wound microdialysate; for Total counts: first 2 h; for First hour (counts): first hour after library injection, rat 7-d-old wound; for First hour (counts) / Second hour (counts): Ion Torrent HTS; for Second hour (counts): second hour after library injection
Source text: We next adopted microdialysis-based biopanning to identify new wound-penetrating peptides. We used a CX7^trinucC peptide T7 phage library (diversity 3.9 × 10^8) in which random amino acids are encoded by equally represented trinucleotides to prevent codon bias ([Pleiko et al, 2021]). The library was cloned into the genome of the T7 bacteriophage engineered for longer circulation half-life and reduced liver uptake ([Hodyra-Stefaniak et al, 2019]). For biopanning, 3.9 × 10^10 phages (∼100 copies of each phage clone) displaying the C7X^trinucC library were injected in the tail vein of rats with day 7 skin wounds. Microdialysates were collected from probes placed in wounds or normal skin (Table S1). Most of the phage recovery at the microdialysis probe happened during the first 2 h after library dosing. The wound dialysates yielded almost all phages introduced into the two microdialysis probes, only one phage clone was recovered from normal skin dialysate (Table S1). We observed that most of the peptide phage clones appeared in the microdialysate during the first 2 h after phage dosing (Table S1). To obtain representative tissue biodistribution of phage clones in relation to dialysates, the skin wound–bearing rats with no inserted dialysis probes were dosed with the naïve CX7^trinucC peptide library, followed by 30-min circulation, perfusion, collection of organs, and analysis of peptide landscapes. The two dialysates collected during the first 2 h were subjected to HTS (Table S2). Whole tissue samples from the wound with and without the probe (1 + 5 wounds) at 30 min and 5 h, as well as control samples from 14 different tissues (2 × 14) and from normal skin (1 x with and 2 x without probe), and two serum samples at the time of euthanasia (30 min and 5 h after the library injection) were subjected to HTS. […] However, the wound microdialysates contained 13 enriched peptide sequences (Table 2). […] A BLAST analysis on candidate peptide sequences was used to scan for sequence homologies with proteins related to angiogenesis, endocytosis, and wound healing (Table S3).
The phage library used in the in vivo screen with the microdialysis probe was in the 10-3b T7 backbone (5–15 peptide copies per phage), grown in BLT5403 E. coli strain, CsCl-purified, dialyzed in PBS, and filter-sterilized. The library was constructed via trinucleotide synthesis to prevent bias in the amount of different amino acids ([Kayushin et al, 1996]). The diversity of the library was 1 × 10^9 and the titer 5 × 10^10 per ml.
as §1
Male Wistar rats were used for the in vivo validation experiment and the library screen. The rats were 27 wk old and weighed 490 g. Two full-thickness circular wounds were created on a shaved and disinfected skin with a 12-mm-diameter biopsy punch and scissors under sevoflurane anesthesia (Sevoflurane Baxter, Baxter SA) and carprofen analgesia ([…]; Norocarp, Norbrook Laboratories). […]

| Substance | Liver Count [1] | Wound without probe Count [1] | Normal skin microdialysate Count [1] | Wound microdialysate Count [1] | Liver % [1] [%] | Wound without probe % [1] [%] | Wound microdialysate % [1] [%] | Total counts [2] [counts] | First hour (counts) [2] [counts] | Second hour (counts) [2] [counts] | detection in skin wound tissue samples ([2]; HTS of whole wound tissue samples) |
| --- | --- | --- | --- | --- | --- | --- | --- | --- | --- | --- | --- |
| CAELNDGLC [T7 phage clone of the custom-made library] | 1,851 | 1,082 | 0 | 0 | 0.70 | 4.98 | 0 |  |  |  |  |
| CARSKNKDC [CARSKNKDC (CAR), T7 phage clone displaying known wound-homing, tissue-penetrating peptide CAR] | 29,894 | 1,614 | 0 | 17,713 | 11.34 | 7.43 | 94.74 |  |  |  |  |
| CDDYQQISC |  |  |  |  |  |  |  | 21 | 10 | 11 |  |
| CERESTKIC [T7 phage clone of the custom-made library] | 93,283 | 3,133 | 0 | 0 | 35.39 | 14.42 | 0 |  |  |  |  |
| CFCQLMYQC |  |  |  |  |  |  |  | 13 | 8 | 5 |  |
| CKKNEINNC |  |  |  |  |  |  |  | 16 | 6 | 10 | found in one skin wound sample |
| CKMLYEYHC |  |  |  |  |  |  |  | 18 | 1 | 17 |  |
| CKSVKNREC [T7 phage clone of the custom-made library] | 108,554 | 14,429 | 2,473 | 0 | 41.18 | 66.39 | 0 |  |  |  |  |
| CLLGKNNSC [T7 phage clone of the custom-made library] | 785 | 0 | 0 | 0 | 0.30 | 0 | 0 |  |  |  |  |
| CLLIYNWSC |  |  |  |  |  |  |  | 17 | 14 | 3 |  |
| CLSQTYRIC |  |  |  |  |  |  |  | 21 | 19 | 2 |  |
| CLTVLSEQC |  |  |  |  |  |  |  | 15 | 8 | 7 |  |
| CNGSALPVC [T7 phage clone of the custom-made library] | 3,300 | 0 | 0 | 0 | 1.25 | 0 | 0 |  |  |  |  |
| CNYLVEKNC |  |  |  |  |  |  |  | 23 | 14 | 9 |  |
| CPKKHHLDC |  |  |  |  |  |  |  | 42 | 19 | 23 |  |
| CRGDKGPDC [CRGDKGPDC (iRGD), T7 phage clone displaying tissue-penetrating homing peptide iRGD] | 8,709 | 1,172 | 0 | 984 | 3.30 | 5.39 | 5.26 |  |  |  |  |
| CRKDKC [CRKDKC (CRK), T7 phage clone displaying CRK peptide, homes to angiogenic vessels, lacks tissue penetration] | 17,235 | 303 | 0 | 0 | 6.54 | 1.39 | 0 |  |  |  |  |
| CRMKFYSEYC |  |  |  |  |  |  |  | 11 | 2 | 9 |  |
| CYHDTYPNC |  |  |  |  |  |  |  | 28 | 14 | 14 |  |
| CYWEDKNLC |  |  |  |  |  |  |  | 15 | 6 | 9 |  |
